This is an account of results in patent publication US6682892B2, “Method for treating herpes viruses” (priority 2000, dated 2004).

In one test the test system is HSV-1 KOS. Put plainly: Plaque reduction assay, HSV-1 KOS. The class given is cell-based. The following applies: Table 1, plaque reduction, Vero cells; read-out: IC50 (uM), HSV-1 KOS. The procedure:
(§1) Antiviral activity of compounds against herpesviruses such as HSV-1, HSV-2, or HCMV can be measured using plaque reduction assays. 0.1 ml of media containing approximately 50 PFU of virus is added to each well of a 24-well cell culture dish containing a confluent monolayer of cells (Vero cells for HSV-1 and HSV-2, HFF cells for HCMV). Compounds are dissolved in 100% DMSO and diluted in 100% DMSO as 200× stocks of the desired final drug concentration. Typically 5-6 two-fold dilutions are prepared for each compound. Dilutions of compounds are then added to media containing 0.8% CMC resulting in a final 1× drug concentration. After the virus-infected cells have incubated for 1 h at 37° C., the virus innoculum is removed and 1 ml of media containing 0.8% CMC and the various concentrations of compound is added to each well of the dish. The dish is incubated at 37° C. for approximately 2-3 days (HSV-1 and HSV-2) or 6-9 days (HCMV) to allow sufficient growth of virus to form plaques in the cell monolayer. Plaques can be observed and counted microscopically or by staining the cells with 0.1% crystal violet in 20% ethanol. […] Antiviral activity of a compound is expressed as the concentration of compound predicted to reduce the number of plaques in a well by 50% (IC50). The IC50 values are calculated by plotting the per cent inhibition vs. concentration of compound using EXCEL software for linear regression.
(§2) A panel of viruses consisting of four strains of HSV-1 (KOS, F, DJL, Patton) and three strains of HSV-2 (MS, 35D, 186) are tested in a plaque reduction assay against four different 4-oxo-DHQ compounds (#1, 2, 4, 5 as shown in FIG. 1), and one 4-oxo-DHTP compound (#3 as shown in FIG. 1) and against Acyclovir. The six drugs inhibited replication of the seven virus strains with IC50 values ranging from 2-10 μM (Table 1). In order to select for 4-oxo-DHQ resistant mutants, HSV-1 strains KOS, F, and DJL along with HSV-2 strains 186 and MS are serially passaged in the presence of 20 uM compound 1. Following the seventh passage, 4-oxo-DHQ resistant virus from each strain are plaque purified three times and high-titer stocks are made.
On the technique in general: In a plaque reduction assay, fewer plaques than in the control indicate reduced infectivity or spread.

A further test concerns HSV-1 DJL. Put plainly: Plaque reduction assay, HSV-1 DJL. In kind it is cell-based. The following applies: Table 1, plaque reduction, Vero cells. The procedure:
as §1, §2

The target of the next test is T1, HCMV V823A polymerase (Human cytomegalovirus, UniProt P08546, V823A).
T1 construct: made in house
T1 sequence (P08546 1-1242 V823A): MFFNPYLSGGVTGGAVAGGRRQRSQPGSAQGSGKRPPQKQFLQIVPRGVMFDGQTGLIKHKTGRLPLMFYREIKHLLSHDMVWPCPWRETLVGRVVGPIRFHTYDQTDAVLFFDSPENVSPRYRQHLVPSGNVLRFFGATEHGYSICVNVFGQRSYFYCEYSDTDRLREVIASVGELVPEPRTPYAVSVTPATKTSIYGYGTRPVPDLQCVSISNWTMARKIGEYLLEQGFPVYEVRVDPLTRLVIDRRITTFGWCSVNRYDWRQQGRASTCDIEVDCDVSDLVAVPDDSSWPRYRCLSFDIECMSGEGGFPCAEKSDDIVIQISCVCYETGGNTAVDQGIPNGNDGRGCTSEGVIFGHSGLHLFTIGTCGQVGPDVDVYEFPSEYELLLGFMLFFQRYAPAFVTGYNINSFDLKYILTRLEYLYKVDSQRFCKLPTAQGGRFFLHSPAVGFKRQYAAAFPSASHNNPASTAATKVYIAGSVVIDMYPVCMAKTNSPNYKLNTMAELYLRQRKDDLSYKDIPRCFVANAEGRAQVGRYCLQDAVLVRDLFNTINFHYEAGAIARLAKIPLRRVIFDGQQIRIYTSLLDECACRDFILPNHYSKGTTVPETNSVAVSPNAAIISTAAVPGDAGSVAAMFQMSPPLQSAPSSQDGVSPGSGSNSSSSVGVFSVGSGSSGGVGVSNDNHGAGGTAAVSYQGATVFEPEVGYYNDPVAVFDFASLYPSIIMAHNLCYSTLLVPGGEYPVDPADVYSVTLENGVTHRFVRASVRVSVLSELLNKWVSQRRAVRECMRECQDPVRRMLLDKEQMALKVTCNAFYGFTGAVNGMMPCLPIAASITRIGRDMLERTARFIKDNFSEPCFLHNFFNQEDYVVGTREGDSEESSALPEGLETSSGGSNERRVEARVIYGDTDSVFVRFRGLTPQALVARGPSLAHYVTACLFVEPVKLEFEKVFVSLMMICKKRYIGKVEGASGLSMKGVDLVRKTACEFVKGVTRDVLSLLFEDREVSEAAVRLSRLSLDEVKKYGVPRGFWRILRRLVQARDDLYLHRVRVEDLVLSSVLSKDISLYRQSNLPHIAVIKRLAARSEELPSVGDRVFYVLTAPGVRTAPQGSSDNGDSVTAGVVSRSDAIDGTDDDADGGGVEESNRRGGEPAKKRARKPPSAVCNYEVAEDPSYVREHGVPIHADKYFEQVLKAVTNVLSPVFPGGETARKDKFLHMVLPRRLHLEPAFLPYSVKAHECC
Put plainly: In vitro polymerase assay, mutant HCMV polymerase V823A. The class given is biochemical. As for the experimental part: In order to select for a 4-oxo-DHQ HCMV resistant mutant, virus (strain AD169) is serially passaged in the presence of 20 uM a 4-oxo-DHQ. […] In order to determine if both valines need to be changed in order to confer resistance to the 4-oxo-DHQ's, in vitro polymerase assays are done using mutant HCMV polymerases containing either V823A or V823A plus V824L (Table 3).

In general, IC50 refers to the concentration that gives 50% inhibition. In the case of `Cn1cc(C(=O)NCc2ccc(Cl)cc2)c(=O)c2cc(/C=C\CO)cc(F)c21` [Compound 1], the IC50 in the test on HSV-1 KOS amounted to 2 µM; in the test on HSV-1 DJL, 2.5 µM; against HCMV V823A polymerase (Table 3), 17.2 µM. The “increase in resistance, HCMV V823A polymerase” value at HCMV V823A polymerase (relative to wild type polymerase) was “*Generation of the valine to alanine at amino acid 823 of HCMV results in a 3.5-fold increase in resistance”.
